We go through two molecules from US6399570B1, “Antimicrobial/endotoxin neutralizing polypeptide” (priority 1999, dated 2002).

Experiment [1] relates to E. coli. Briefly: Ionic strength effect on antimicrobial activity. In kind it is cell-based. As to conditions: 25 μM polypeptide. How it is done: For example, reducing the ionic strength from 150 mM NaCl to 50 mM NaCl reduces the number of viable bacteria after exposure by ˜10,000-fold.
Determining ionic strength effect on antimicrobial activity. E. coli were cultured overnight as described earlier. […] To control for the effects of salt alone on culture growth, the ratio of CFU in polypeptide treated cultures to that in untreated control cultures, grown in the same salt concentration but lacking any polypeptide treatment, was calculated for each salt concentration examined. These values were then normalized to the ratio calculated for CFUs measured at […], the lowest salt concentration tested, and plotted on the Y-axis versus increasing concentration of salt on the X-axis.

Experiment [2] concerns RAW 264.7 cells. Briefly: Endotoxin induced TNF-α secretion by RAW 264.7 cells. The format is cell-based, murine. How it is done:
Suppression of endotoxin-induced TNF-α secretion by a macrophage cell line RAW 264.7 was also measured (Kelly et al., Infect. Immun. 59: 4491-6 (1991)). RAW 264.7 cells secret TNF-α upon exposure to endotoxin (M. R. Ruff and G. E. Gifford, Lymphokines 2: 235-272 (1981)). […] Similar to the results of the LAL assay, the potency of LF-33 varied depending on the type of endotoxin. The LF-33 concentration needed to suppress 50% TNF-α secretion induced by endotoxin (10 ng/ml) was approximately 0.01 μM for E. coli LPS and lipid A, 0.1 μM for LPS from P. aeruginosa, and 0.5 μM for LPS from S. abortus equi and N. meningitidis.
Endotoxin induced TNF-α secretion by RAW 264.7 cells. The murine macrophage cell line RAW 264.7 was obtained from the American Type Culture Collection (ATCC, Rockville, Md.) and maintained as described previously (Jeremy, B., Immunol. Today. 16: 417-419 (1995)). The concentration of endotoxin in all buffers and media was controlled to below 0.1 EU/ml. The following protocol was essentially described before and used here with minor modifications (Kelly et al., Infect. Immun. 59: 4491-6 (1991)). Each well of a 96-well tissue culture plate was seeded with 150 μl RAW 264.7 cells at 10^6 cells per ml DMEM (Life Technologies, Gaithersburg, Md.) supplemented with 10% heat-treated fetal bovine serum (Life Technologies), 25 mM HEPES (N-2-hydroxyethylpiperazine-N′-2-ethanesulfonic acid; pH 7.3), penicillin (60 U/ml) and streptomycin (60 μg/ml). After overnight incubation at 37° C. in a 6% CO2 incubator, the medium was aspirated and cells washed with 3-changes of endotoxin-free Hank's balanced salt solution (HBSS, Life Technologies) supplemented with 25 mM HEPES (pH 7.3). Control endotoxin (10 ng/ml) and test materials were prepared in HBSS-HEPES. After incubation in a 37° C. water bath for 1 h, 0.2 ml of these solutions was added in triplicate to each well and incubated at 37° C. for 6 h. The supernatants were then collected and stored at −70° C. before the measurement of […] activity. Controls included HBSS-HEPES and test materials in the absence of endotoxin. TNF-α activity of the medium and test materials was below […]. The human serum used in some experiments was a pool from normal donors.
Determination of TNF activity. TNF-α activity in the culture supernatant was determined based on its cytotoxicity for the mouse fibrosarcoma cell line WEHI 164 cells (ATCC). […] The antibody at 1:100 dilution completely eliminated the cytotoxicity in the culture supernatant of the RAW 264.7 cell stimulated by endotoxin and in the mouse sera collected 1 h after intraperitoneal injection of endotoxin.
Briefly, the 96-well tissue culture plates were seeded with 100 μl WEHI164 cells (5×10^4 cells) in RPMI-1640 medium (Life Technologies) containing 10% heat-treated fetal bovine serum, 25 mM HEPES (pH 7.3), penicillin (60 U/ml), streptomycin (60 μg/ml), and actinomycin D (4 μg/ml). After a 2-h incubation at 37° C. in a 6% CO2 incubator, 10 μl twofold serially diluted samples (culture supernatants) or standards (murine recombinant TNF-α, Genzyme) was added to each well, and incubated for 20 h. Cell viability was then determined by the addition of 10 μl MTT (Thiazolyl blue, Sigma) stock solution (5 mg/ml in saline) to each well, and the incubation was allowed to continue for 6 h. 180 μl of acid-isopropanol (containing 40 mM HCl) was added to dissolve the generated dark blue crystals. The plate was read at 570 nm with a reference of 630 nm in a microplate reader. The amount of TNF-α that led to 50% killing of the seeded cells was defined as one unit, equivalent to approximately 15 pg of recombinant TNF-α under the present condition. A standard curve was obtained by incubating known amounts of the recombinant TNF-α with the WEHI cells.

Consider “6 kDa polypeptide: 6 kDa fragment produced by cathepsin D digestion of human LF, amino acids 1-49 of SEQ ID NO: 2 (GRRRRSVQWCAVSQPEATKCFQWQRNMRKVRGPPVSCIKRDSPIQCIQA; listed as Homo sapiens)”, for which, in experiment [1] (from 150 mM NaCl to 50 mM NaCl), the “reduction of number of viable bacteria on reducing ionic strength” value is reported as ~10,000 fold. Besides, the “growth inhibiting activity at elevated ionic strength” value in experiment [1] (ionic strengths equal to or greater than 200 mM NaCl) is “essentially lost”.

As to `CSCC[C@H](NC(=O)[C@H](CC(N)=O)NC(=O)[C@H](CCCNC(=N)N)NC(=O)[C@H](CCC(N)=O)NC(=O)[C@H](Cc1c[nH]c2ccccc12)NC(=O)[C@H](CCC(N)=O)NC(=O)[C@H](Cc1ccccc1)NC(=O)[C@H](CS)NC(=O)[C@H](CCCCN)NC(=O)[C@@H](NC(=O)[C@H](C)NC(=O)[C@H](CCC(=O)O)NC(=O)[C@@H]1CCCN1C(=O)[C@H](CCC(N)=O)NC(=O)[C@H](CO)NC(=O)[C@@H](NC(=O)[C@H](C)NC(=O)[C@H](CS)NC(=O)[C@H](Cc1c[nH]c2ccccc12)NC(=O)[C@H](CCC(N)=O)NC(=O)[C@@H](N)C(C)C)C(C)C)[C@@H](C)O)C(=O)N[C@@H](CCCNC(=N)N)C(=O)N[C@@H](CCCCN)C(=O)N[C@H](C(=O)N[C@@H](CCCNC(=N)N)C(=O)NCC(=O)N1CCC[C@H]1C(=O)O)C(C)C` [LF-27], the “TNF-α secretion induced by Lipid A” value in experiment [2] (agent 3 μM, endotoxin 10 ng/ml, control 2,386) was 3,182 +/− 412 pg/ml. In addition, in experiment [2] (agent 3 μM, endotoxin 10 ng/ml, control 3,969), the “TNF-α secretion induced by S. abortus LPS” value is listed as 3,985 +/− 497 pg/ml. For the same molecule, the “TNF-α secretion induced by P. aer. LPS” value in experiment [2] (agent 3 μM, endotoxin 10 ng/ml, control 4,813) is listed as 4,633 +/− 603 pg/ml. The “TNF-α secretion induced by E. coli LPS” value in experiment [2] (agent 3 μM, endotoxin 10 ng/ml, control 4,928) is given as 4,912 +/− 588 pg/ml. Besides, the “TNF-α secretion induced by N. min. LPS” value in experiment [2] (agent 3 μM, endotoxin 10 ng/ml, control 5,658) is 7,306 +/− 1008 pg/ml. In addition, the “effect on endotoxin-induced TNF-α secretion” value in experiment [2] (equal molar concentration of LF-27 or 10% human serum) is reported as “no effect”.
